According to PMC6940941, “Development of Thiazolidinedione-Based HDAC6 Inhibitors to Overcome Methamphetamine Addiction” (International Journal of Molecular Sciences, 2019):
pIC50: −log10 of the molar value.

Legend:
[1] = target: T1, HDAC1 (Homo sapiens, UniProt Q13547); test: Enzymatic HDAC fluorogenic assay (BPS Bioscience), HDAC1; format: biochemical; settings: 37 °C, 30 min incubation
T1 construct: purchased BPS Bioscience #50061
Protocol: (§4) Tubastain A (Portland, OR, USA) was purchased from TCI chemicals.
(§5) Enzymatic HDAC assay was performed following manufacturer’s protocol (BPS Bioscience). Briefly, HDAC assay buffer (35 µL) was mixed with 5 µL of BSA (1 mg/mL) and 5 µL of HDAC substrate (200 µM) in 96-well black plate. […] After incubation, 50 µL of undiluted 2 × HDAC developer was added to each well. After the mixture was incubated at RT for 15 min, fluorescence intensity was measured using a microplate reader at 360 nm excitation and 460 nm emission wavelengths.

[2] = target: T2, HDAC6 (Homo sapiens, UniProt Q9UBN7); test: Enzymatic HDAC fluorogenic assay (BPS Bioscience), HDAC6
T2 sequence (Q9UBN7 1-1215): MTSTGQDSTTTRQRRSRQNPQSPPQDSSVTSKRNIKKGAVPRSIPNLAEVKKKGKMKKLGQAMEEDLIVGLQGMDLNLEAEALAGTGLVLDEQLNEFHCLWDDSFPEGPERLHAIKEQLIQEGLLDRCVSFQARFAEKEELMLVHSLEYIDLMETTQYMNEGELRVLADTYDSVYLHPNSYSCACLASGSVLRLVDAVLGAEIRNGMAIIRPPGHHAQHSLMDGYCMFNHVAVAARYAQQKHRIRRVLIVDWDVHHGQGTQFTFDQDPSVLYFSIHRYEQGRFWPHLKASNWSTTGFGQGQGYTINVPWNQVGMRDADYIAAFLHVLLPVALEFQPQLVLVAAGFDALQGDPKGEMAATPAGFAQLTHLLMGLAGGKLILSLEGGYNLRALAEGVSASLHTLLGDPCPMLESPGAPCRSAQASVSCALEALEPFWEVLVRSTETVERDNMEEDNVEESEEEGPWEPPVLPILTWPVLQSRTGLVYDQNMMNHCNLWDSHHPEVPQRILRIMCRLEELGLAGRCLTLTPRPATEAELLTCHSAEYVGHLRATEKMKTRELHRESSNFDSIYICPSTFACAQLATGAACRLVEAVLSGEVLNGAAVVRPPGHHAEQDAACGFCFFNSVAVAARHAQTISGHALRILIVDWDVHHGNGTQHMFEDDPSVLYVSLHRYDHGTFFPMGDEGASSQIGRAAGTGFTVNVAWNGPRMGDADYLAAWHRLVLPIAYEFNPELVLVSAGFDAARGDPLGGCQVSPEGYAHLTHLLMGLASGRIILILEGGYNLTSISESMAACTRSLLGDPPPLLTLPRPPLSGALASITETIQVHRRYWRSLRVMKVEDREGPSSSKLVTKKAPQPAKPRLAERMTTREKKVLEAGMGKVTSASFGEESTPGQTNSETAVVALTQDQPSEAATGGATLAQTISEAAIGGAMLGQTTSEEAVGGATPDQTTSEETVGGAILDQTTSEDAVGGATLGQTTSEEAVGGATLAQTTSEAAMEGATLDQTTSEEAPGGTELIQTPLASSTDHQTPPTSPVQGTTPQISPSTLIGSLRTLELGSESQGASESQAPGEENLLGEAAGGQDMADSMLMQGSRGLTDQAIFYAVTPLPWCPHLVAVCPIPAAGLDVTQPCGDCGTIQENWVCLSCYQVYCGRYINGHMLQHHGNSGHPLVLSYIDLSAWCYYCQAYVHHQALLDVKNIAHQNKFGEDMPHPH
Protocol: as §4, §5

[3] = system: Ac-α-tubulin; test: Western blot of Ac-α-tubulin / α-tubulin in SH-SY5Y cells; format: cell-based, human
Protocol: (§1) We further explored the precise cellular mechanism of compound 6b. Histone H3 and α-tubulin are well-known substrates of HDAC1 and HDAC6 [23, 24]. Therefore, inhibition of HDAC1 and HDAC6 enzymes promotes the accumulation of acetylated Histone H3 and α-tubulin, respectively. Therefore, SH-SY5Y cells were incubated with compound 6b at various concentrations (0, 1, 5, 10, and 20 µM) for 24 h and the expression levels of α-tubulin, Ac-α-tubulin, Histone H3, and Ac-Histone H3 were analysed by Western blot. […] The administration of 6b at relatively low concentration of 1 µM caused the acetylation of α-tubulin via inhibition of HDAC6.
We next explored the underlying molecular and biochemical mechanisms behind the morphological changes. α-Tubulin is the basic protein that constitutes the cytoskeleton and the dynamic acetylation and deacetylation of α-tubulin play an important role in the morphology of cells. […]. […] We next investigated if compound 6b reversed the loss of the acetylation caused by methamphetamine. […].
(§2) The cells were washed and lysed in ice-cold lysis buffer (23 mM Tris-HCl pH 7.6, 130 mM NaCl, 1% NP-40, 1% sodium deoxycholate, 0.1% SDS) and 30 µg of lysate per lane was separated by SDS-PAGE, followed by transferring to a PVDF membrane (Bio rad, Hercules, USA). The membrane was blocked with 5% skim milk in TBST, and then incubated with primary antibody. After being treated with goat-anti rabbit secondary antibody (Santa Cruz, CA, USA) coupled horseradish peroxidase, proteins were visualized by ECL chemiluminescence according to the instructions of the manufacturer’s instruction (GE Healthcare, Chicago, IL, USA).
(§3) Figure 2 Effect of compound 6b on the cell viability of SH-SY5Y and the acetylation status of α-tubulin and Histone H3. (A) SH-SY5Y cells were treated with the indicated concentrations of compound 6b for 24 h and the cell viability was measured using the colorimetric MTS assay. Data are presented as mean ± SD (n = 4). (B) SH-SY5Y cells were incubated with the indicated concentrations of compound 6b or Tubastatin A (Tub) for 24 h and the expression levels of α-tubulin, Ac-α-tubulin, Histone H3, and Ac-Histone H3 were analysed by Western blot. Tubastatin A was employed as a positive control and β-actin was used as a loading control. The p value was obtained by Student t-test. * p < 0.01 as compared to vehicle.
. (A) SH-SY5Y cells were incubated with the indicated concentrations of methamphetamine (METH) for 24 h and the expression levels of Ac-α-tubulin and α-tubulin were analysed by Western blot. β-actin was used as a loading control. […]

[4] = system: Ac-Histone H3; test: Western blot of Ac-Histone H3 / Histone H3 in SH-SY5Y cells; format: cell-based, human; settings: 24 h
Protocol: as §1, §2, §3

[5] = system: SH-SY5Y cells; test: Assessment of cell morphology (phase contrast microscopy); format: cell-based, human
Protocol: SH-SY5Y cells (1 × 10^4 cells/well) were seeded in 6-well plate, and the cells were allowed to attach for 72 h. Culture medium was then changed to fresh medium containing METH (1 mM) for pretreat 4 h. After being preincubated for 4 h, add to compound 6b (5, 10, and 20 µM) for 24 h.
Figure 3 Effect of methamphetamine (METH) and compound 6b on the cell morphology and viability of SH-SY5Y cells. (A) Effect of methamphetamine on the cell viability of SH-SY5Y. Cells were incubated with the indicated concentrations of methamphetamine (METH) for 24 h and cell viability was measured using the colorimetric MTS assay. Data are presented as mean ± SD (n = 4). (B) Bright-field images of SH-SY5Y cells. […]

[6] = target: T2, HDAC6
Protocol: as §4, §5

[7] = design: method as in PMID 30597327; settings: hampered in vivo application; cited from earlier work
[8] = system: SH-SY5Y cells; test: Cell viability, colorimetric MTS assay; format: cell-based, human; settings: 24 h, up to 1 mM
Protocol: SH-SY5Y (1 × 10^3 cells/well) were seeded in 96-well plate, the medium volume was brought to 100 µL, and the cells were allowed to attach for 14 h. Various concentrations of compound 6b (1, 5, 10, 30, 50, 70, and 100 µM) and METH (0.1 and 1 mM) were then added to the wells. Cells were then incubated at 37 °C for 24 h. Cell viability was determined using the Promega Cell Titer 96 Aqueous One Solution cell proliferation assay. Absorbance at 490 nm was read on Tecan Infinite F200 Pro plate reader, and values were expressed as percent of absorbance from cells incubated in DMSO alone.
as §3, with “Tubastatin A was employed as a positive control and β-actin was used as a loading control. The p value was obtained by Student t-test. * p < 0.01 as compared to vehicle.” left out
Figure 3 Effect of methamphetamine (METH) and compound 6b on the cell morphology and viability of SH-SY5Y cells. […] Cells were incubated with the indicated concentrations of methamphetamine (METH) for 24 h and cell viability was measured using the colorimetric MTS assay. […]

[9] = SH-SY5Y, 0, 0.5, 1, 2, and 3 mM, 24 h

T1 sequence (Q13547 whole entry): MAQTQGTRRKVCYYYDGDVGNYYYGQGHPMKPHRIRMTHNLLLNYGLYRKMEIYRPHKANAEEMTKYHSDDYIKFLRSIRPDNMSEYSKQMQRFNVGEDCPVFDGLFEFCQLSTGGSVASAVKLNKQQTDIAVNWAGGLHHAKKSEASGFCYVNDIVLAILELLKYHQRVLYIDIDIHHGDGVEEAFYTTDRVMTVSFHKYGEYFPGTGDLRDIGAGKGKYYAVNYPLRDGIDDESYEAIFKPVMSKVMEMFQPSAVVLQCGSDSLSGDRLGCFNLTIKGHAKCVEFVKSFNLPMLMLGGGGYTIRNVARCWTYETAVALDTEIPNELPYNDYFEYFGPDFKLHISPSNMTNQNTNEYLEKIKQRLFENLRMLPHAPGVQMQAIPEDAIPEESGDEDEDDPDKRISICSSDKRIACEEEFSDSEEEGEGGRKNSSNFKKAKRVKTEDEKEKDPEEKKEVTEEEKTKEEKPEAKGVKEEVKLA

For `O=C(NO)c1cccc(CN2C(=O)CSC2=O)c1` [Compound 6a, 3-((2,4-Dioxothiazolidin-3-yl)methyl)-N-hydroxybenzamide], the IC50 [1] was > 50000 nM and the pIC50 [2] was 5.71.

For `O=C(NO)c1ccc(CN2C(=O)CSC2=O)cc1` [Compound 6b, 4-((2,4-Dioxothiazolidin-3-yl)methyl)-N-hydroxybenzamide], the IC50 [1] was 388 nM, the “acetylation of α-tubulin after METH-promoted loss of acetylation” value ([3]; SH-SY5Y pretreated with METH 3 mM for 4 h, then 6b (1 µM) for 24 h) was “significant increase” and the “acetylation of α-tubulin” value ([3]; SH-SY5Y, 0, 1, 5, 10, and 20 µM, 24 h) was “dose-dependently induced”. The “concentration that caused the acetylation of α-tubulin” value ([3]; SH-SY5Y, 24 h) was 1 µM, the “acetylation of Histone H3” value ([4]; SH-SY5Y, 0, 1, 5, 10, and 20 µM) was “dose-dependently induced” and the “protein level of Histone H3” value ([4]; SH-SY5Y, 0-20 µM) was “increases in proportion to the concentration”. The “concentration able to promote the acetylation of Histone H3” value ([4]; SH-SY5Y) was 10 µM, the “effect on METH-induced cell morphology change” value ([5]; SH-SY5Y pretreated with 1 mM METH for 4 h, then 5, 10, and 20 µM for 24 h, dose-dependent) was “reversed effect on the cell morphology change from a rounded shape back to a spindle shape” and the “Selectivity Index” value [6] was 18.5. The pIC50 [2] was 7.68.

For `CCCC1SC(=O)N(Cc2ccc(C(=O)NO)cc2)C1=O` (centres unmarked) [Compound 8a, 4-((2,4-Dioxo-5-propylthiazolidin-3-yl)methyl)-N-hydroxybenzamide], the IC50 [1] was > 100000 nM and the pIC50 [2] was 4.10.

With `C=CCC1SC(=O)N(Cc2ccc(C(=O)NO)cc2)C1=O` (centres unmarked) [Compound 8b, 4-((5-Allyl-2,4-dioxothiazolidin-3-yl)methyl)-N-hydroxybenzamide] the IC50 [1] was > 100000 nM and the pIC50 [2] was 5.89.

In the case of `O=C(NO)c1ccc(CN2C(=O)SC(Cc3ccccc3)C2=O)cc1` (centres unmarked) [Compound 8c, 4-((5-Benzyl-2,4-dioxothiazolidin-3-yl)methyl)-N-hydroxybenzamide], the IC50 [1] was > 100000 nM and the pIC50 [2] was 6.20.

For `O=C(NO)c1ccc2c(c1)C(=O)c1ccccc1C2=O` [anthraquinone-based HDAC6 inhibitor], the solubility [7] is listed as “poor solubility”.

For `CN[C@@H](C)Cc1ccccc1` [methamphetamine, Methamphetamine], the “effect on cell viability” value [8] was “no toxicity”, the “acetylation of α-tubulin” value [3, 9] was “dose-dependently decreased” and the “expression level of α-tubulin” value [3, 9] was “remained unchanged”. For the same compound, the cell morphology ([5]; SH-SY5Y, 1 mM) was “rounded shape with a shrunken morphology”.
